Active and inactive are the calls of the source. The calls are words filed in the database; no cut-off is given here.
What was measured:
Escherichia coli = assay: Antibacterial activity against Escherichia coli; format: functional, organism-based
Pseudomonas aeruginosa = assay: Antibacterial activity against Pseudomonas aeruginosa; format: functional, organism-based
Enterococcus faecalis = assay: Antibacterial activity against Enterococcus faecalis; format: functional, organism-based
Staphylococcus aureus = assay: Antibacterial activity against Staphylococcus aureus; format: functional, organism-based
[1] = system: Staphylococcus epidermidis; assay: Antibacterial activity against Staphylococcus epidermidis; format: functional, organism-based
Micrococcus luteus = assay: Antibacterial activity against Micrococcus luteus; format: functional, organism-based
Bacillus subtilis = assay: Antibacterial activity against Bacillus subtilis; format: functional, organism-based
Saccharomyces cerevisiae = assay: Antifungal activity against Saccharomyces cerevisiae; format: functional, organism-based
L929 = assay: Cytotoxicity against mouse L929 cells after 5 days by MTT assay; format: cell-based; conditions: l929, 120 h
HL-60 = assay: Cytotoxicity against human HL60 cells after 5 days by MTT assay; format: functional, cell-based
Galleria mellonella = assay: Hemocyte cytotoxicity against Galleria mellonella larvae assessed as actin cytoskeletal ruffling at 100 ug/mL after 4 hrs; format: organism-based; conditions: in vivo

With `CC(C)[C@H](NC(=O)Cc1ccccc1)C(=O)N[C@@H]1C(=O)N[C@H](Cc2ccccc2)C(=O)N2CCC[C@H]2C(=O)N[C@@H](C(C)C)C(=O)N[C@@H](C(C)C)C(=O)N[C@@H](C(C)C)C(=O)O[C@@H]1C` [XENTRIVALPEPTIDE A] the Activity (Escherichia coli) was “inactive”, the Activity (Pseudomonas aeruginosa) was “inactive” and the Activity (Enterococcus faecalis) was “inactive”. The Activity (Staphylococcus aureus) was “inactive”, the Activity [1] was “inactive” and the Activity (Micrococcus luteus) was “inactive”. For the same compound, the Activity (Bacillus subtilis) was “inactive”, the Activity (Saccharomyces cerevisiae) was “inactive” and the Activity (L929) was “Non-toxic”. For the same compound, the Activity (HL-60) was “inactive” and the Activity (Galleria mellonella) was “Toxic”.

— ChEMBL document CHEMBL2150979, “Xentrivalpeptides A-Q: depsipeptide diversification in Xenorhabdus” (J Nat Prod, 2012)
